Test results as given in patent US12084411B2, “Hinokitiol analogues, methods of preparing and pharmaceutical compositions thereof” (The Board of Trustees of the University of Illinois, priority 2018, dated 2024).

Columns and labels:
[1] = tested on: DMT1-deficient Caco-2 monolayers; test: 55Fe uptake and transport in DMT1-deficient Caco-2 monolayers; conditions: for iron uptake and transepithelial transport: apical addition (hinokitiol 500 nM), pH 5.5 apical, pH 7.4 basolateral, four hours
Protocol: Media from differentiated Caco-2 monolayers (P25-50, 21-28 days post seeding) grown on PET inserts in 6-well plates was aspirated, and monolayers were rinsed with PBS. 2 mL of basolateral fluid (serum-free DMEM at pH=7.4 in 10 mM HEPES buffer) was added to the basolateralside, and 1 mL of apical fluid (serum-free DMEM at pH=5.5 in 10 mM MES buffer) containing 200 nM ^55FeCl3 or the indicated concentration of FeCl3 and either DMSO vehicle, hinokitiol, C2deOHino, deferiprone, PIH, SIH, or deferoxamine mesylate (Sigma D9533) (500 nM Hino/C2deOHino for DMT1-deficiency, 1 μM Hino/C2deOHino for FPN1-deficiency, or indicated concentration of small molecule from a 1000X stock in DMSO) was added to the apical side via addition on the wall of the membrane insert without disrupting the cell monolayer. The monolayers were then incubated for four hours at 37° C. unless otherwise noted. A 100 μL aliquot of the basolateral fluid was removed, diluted in scintillation cocktail, and radioactivity was determined on a liquid scintillation counter to quantify relative amounts of ^55Fe transport. To determine intracellular ^55Fe, the basolateral and apical media was removed, and the monolayer was rinsed with PBS (×2). The cells were then lysed with 500 μL of 200 mM NaOH with nutator mixing overnight, and radioactivity was determined on a liquid scintillation counter after diluting the cell lysate in scintillation cocktail. All values were normalized to shControl monolayers unless otherwise noted. Absolute iron levels were determined through calibration of ^55Fe radioactivity levels with known standards and average mg of protein per membrane was determined by protein lysis with RIPA buffer containing protease inhibitors and quantified through a BCA kit according to manufacturer instructions.
TEER determination in Caco-2 monolayers (FIG. 12D and FIG. 14L) To determine Caco-2 membrane integrity, transport studies were performed as described above, except for the use of non-radioactive iron instead of ^55FeCl3. At the indicated time points, the transepithelial electrical resistance (TEER) was determined with an epithelial voltohmmeter and compared to the TEER of the membrane at the beginning of the experiment.

DMT1-deficient MEL cells = test: Live cell fluorescence imaging and flow cytometry of compartmentalized iron in MEL cells; format: cell-based, mouse; conditions: for endosomal oxyburst green, cytosolic calcein green and mitochondrial RPA fluorescence: 1 μM
Protocol: To visualize cytosolic and mitochondrial iron, confocal imaging of calcein green and RPA fluorescence was performed, respectively. MEL cells were induced for differentiation as described above. […] The cells were incubated for an additional 2 hours, and then were centrifuged and rinsed with PBS. […] The cells were then incubated at 37° C. for 15 minutes. […] The cells were then imaged within 10 minutes on a LSM710 microscope. Relative calcein green and RPA fluorescence per cell was determined by ImageJ analysis using >100 cells per experiment. […] MEL cells were induced for differentiation as described above. […] The cells were incubated for an additional 2 hours, and then were centrifuged and rinsed with PBS. The cells were then re-suspended in DMEM-HEPES buffer, and H2O2 (50 mM final concentration) was added. The cells were incubated at room temperature, and the oxyburst green fluorescence was then determined 10 minutes after addition of H2O2 on a LSM710 microscope. Relative oxyburst green fluorescence per cell was determined by ImageJ analysis using >100 cells per experiment. […] Median fluorescence was then normalized to shDMT1 for each dye. […] Median fluorescence was then normalized to shDMT1 for each dye.

[2] = Determination of the pKa of hinokitiol; format: physicochemical; conditions: 0.1 M KCl solution in water, spectrophotometric titration
Protocol: The pKa of hinokitiol was determined by spectrophotometric titration with varying pH. Hinokitiol (100 μM) was dissolved in a 0.1 M KCl solution in H2O and acidified to pH=3.0 (using 0.1 M HCl). The UV-Vis spectrum was repeatedly obtained upon sequential titration of 0.1 M KOH to obtain a range of pHs (3.0, 3.4, 3.9, 4.2, 4.6, 4.9, 6.0, 6.4, 7.0, 7.2, 7.6, 8.4, 9.3, 9.7, 10.4, 10.9, 11.7, 12.0).

shDMT1 Caco-2 monolayers = test: Iron-related protein and mRNA levels in shDMT1 Caco-2 monolayers; format: cell-based, Human; conditions: hinokitiol up to 5 μM, 25 μM FeCl3, 4 hours
Protocol: The threshold cycle values were normalized to internal control actin using primers against Fpn1 (Origene HB210988) and Fth1 (Origene HP205786) using the Pfaff1 Method and were then normalized to shDMT1 levels in the absence of hinokitiol. Caco-2 monolayers, differentiated MEL cells, or J774 cells underwent treatment as described in rescue experiments before lysis with RIPA buffer (Thermo 89901) containing protease inhibitors (Thermo 88266). Protein concentrations were determined by a BCA kit (Thermo 23225) and diluted to 2 mg/mL in the same RIPA buffer. […] Blots were thoroughly rinsed with TBST and imaged after addition of Femto Chemluminescence solution according to manufacturer instructions (Thermo Fisher 34095). For results found in FIG. 19E, protein lysate was isolated after treatment with 500 nM FeCl3 as described below. For results found in FIG. 22A, Caco-2 monolayers were treated with 25 μM FeCl3 and 0, 0.5, 1, 3, 5, 10, 25, or 50 μM hinokitiol as described below. […] Experiments for the translational and transcriptional regulated changes in endogenous proteins upon addition of increasing hinokitiol concentrations (FIG. 5F-J, FIG. 21, and FIG. 22A-L) used 25 μM of non-radioactive FeCl3 and the indicated concentration of hinokitiol (from a 1000X stock in DMSO).

[3] = Electrochemical studies (cyclic voltammetry) of iron:chelator complexes; format: physicochemical
Protocol: Potentiostatic electrochemical methods were performed on a CH Instruments electrochemical workstation (model 760 C, Austin, TX) on a three-electrode cell. Hg working electrodes were fabricated by the electrodeposition of Hg on a Pt wire utilizing the procedure previously described by Barton et al. (70). All experiments were reported versus a Ag/AgCl reference electrode and utilized a graphite auxiliary electrode. The electrolyte was sparged with UHP argon before measurements. A positive pressure of argon was maintained throughout the experiments.
Unless otherwise indicated, experiments used a 0.1 M Tris buffer in H2O or 1:1 MeOH:H2O at pH=7.2 using HNO3 and KOH as titrant. Unless otherwise indicated, experiments used a 100 mV/s scan rate, 100 μM Fe(NO3)3, and 500 μM small molecule. All redox potentials are recorded versus a normal hydrogen electrode (NHE).
The estimated redox potential of Fe(Hino)n was determined through extrapolation of the best-fit line of the determined redox potentials of Fe(Hino)n as a function of the concentration of MeOH in the 0.1 M Tris buffer at pH=7.2.

fet3Δftr1Δ yeast = test: Growth rescue of iron-deficient yeast with small molecules on agar plates; format: cell-based, Saccharomyces cerevisiae; conditions: low iron SD-agar plates, 10 μM FeCl3

| Compound | iron uptake and transepithelial transport [1] | endosomal oxyburst green, cytosolic calcein green and mitochondrial RPA fluorescence (DMT1-deficient MEL cells) | monolayer integrity (TEER) ([1]; 500 nM) | pKa [2] | Fpn1 mRNA and protein levels (shDMT1 Caco-2 monolayers) | Hif1α and Hif2α levels (shDMT1 Caco-2 monolayers) | IRP2 protein levels (shDMT1 Caco-2 monolayers) | TfR1 (3′-IRE) protein levels (shDMT1 Caco-2 monolayers) | ferritin subunits (5′-IREs) protein levels (shDMT1 Caco-2 monolayers) | E^0 1:1 MeOH:H2O ([3]; Table 2, 0.1 M Tris, pH 7.2) | E^0 Aqueous, estimated from MeOH standard curve ([3]; extrapolation of E^01 vs. MeOH concentration) | decrease of oxyburst green fluorescence (DMT1-deficient MEL cells; hinokitiol 1 μM) | growth rescue of fet3Δftr1Δ yeast (fet3Δftr1Δ yeast) |
| --- | --- | --- | --- | --- | --- | --- | --- | --- | --- | --- | --- | --- | --- |
| CC(C)c1cccc(=O)cc1 [C2deOHino, C2-deoxy hinokitiol] | did not promote both uptake and transport | no effect |  |  |  |  |  |  |  |  |  |  |  |
| CC(C)c1cccc(=O)c(O)c1 [hinokitiol] | restored uptake and transport | decreases endosomal oxyburst green fluorescence and quenches calcein green and RPA fluorescence | did not disrupt monolayer integrity | 7.33 | decreased | similarly decreased | decreased | decreased | increased | −211 mV vs. N.H.E. | −361^¶ mV vs. N.H.E. | 2.1 fold | highly effective |
